Test results: ChEMBL document CHEMBL1909046, “DrugMatrix in vitro pharmacology data”

How the values were obtained:
[1] = molecular target: C-C chemokine receptor type 5 (Homo sapiens, UniProt P51681); format: cell membranes, Membrane; settings: hek293; further: in other assays of this panel Not Active means under 50% inhibition at 10 µM
[2] = molecular target: T1, Muscarinic acetylcholine receptor M2 (Homo sapiens, UniProt P08172); format: cell membranes, CHO-K1, Membrane; settings: cho-k1; further: in other assays of this panel Not Active means under 50% inhibition at 10 µM
T1 sequence (P08172 whole entry): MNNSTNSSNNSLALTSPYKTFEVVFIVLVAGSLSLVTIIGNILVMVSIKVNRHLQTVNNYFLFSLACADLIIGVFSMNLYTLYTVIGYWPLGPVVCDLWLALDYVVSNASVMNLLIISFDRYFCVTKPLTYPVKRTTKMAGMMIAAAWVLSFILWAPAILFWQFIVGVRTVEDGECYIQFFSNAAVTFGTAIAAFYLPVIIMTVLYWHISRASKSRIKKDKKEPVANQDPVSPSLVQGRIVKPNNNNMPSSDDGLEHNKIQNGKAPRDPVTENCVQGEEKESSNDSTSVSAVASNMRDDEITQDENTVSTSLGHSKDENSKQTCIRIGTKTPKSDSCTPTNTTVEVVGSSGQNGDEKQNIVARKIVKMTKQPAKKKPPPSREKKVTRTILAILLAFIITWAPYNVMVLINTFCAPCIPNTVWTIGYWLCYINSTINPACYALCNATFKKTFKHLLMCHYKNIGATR

Cytochrome P450 2C9 = Cytochrome P450 2C9 (Homo sapiens, UniProt P11712); settings: bti-tn-5b1-4; further: in other assays of this panel Not Active means under 50% inhibition at 10 µM
Cytochrome P450 2C9, sequence (P11712 whole entry): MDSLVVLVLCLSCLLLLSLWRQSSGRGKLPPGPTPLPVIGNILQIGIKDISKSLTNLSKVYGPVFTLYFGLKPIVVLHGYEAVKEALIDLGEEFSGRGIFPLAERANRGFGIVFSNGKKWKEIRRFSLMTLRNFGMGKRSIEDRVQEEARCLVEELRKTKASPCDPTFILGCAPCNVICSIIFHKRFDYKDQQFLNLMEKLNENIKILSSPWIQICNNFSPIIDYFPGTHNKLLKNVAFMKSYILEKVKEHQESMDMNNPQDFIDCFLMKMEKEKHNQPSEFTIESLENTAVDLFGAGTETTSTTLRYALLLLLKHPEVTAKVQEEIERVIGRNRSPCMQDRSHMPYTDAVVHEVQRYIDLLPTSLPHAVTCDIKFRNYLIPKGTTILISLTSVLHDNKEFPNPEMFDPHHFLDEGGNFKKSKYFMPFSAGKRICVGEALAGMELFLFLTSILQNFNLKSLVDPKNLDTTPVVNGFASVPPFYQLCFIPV

[3] = molecular target: T2, 5-hydroxytryptamine receptor 2C (Homo sapiens, UniProt P28335); test: DRUGMATRIX: Serotonin (5-Hydroxytryptamine) 5-HT2C radioligand binding (ligand: [3H] Mesulergine); format: cell membranes, CHO-K1, Membrane; settings: cho-k1; Not Active = under 50% inhibition at 10 µM
T2 sequence (P28335 whole entry): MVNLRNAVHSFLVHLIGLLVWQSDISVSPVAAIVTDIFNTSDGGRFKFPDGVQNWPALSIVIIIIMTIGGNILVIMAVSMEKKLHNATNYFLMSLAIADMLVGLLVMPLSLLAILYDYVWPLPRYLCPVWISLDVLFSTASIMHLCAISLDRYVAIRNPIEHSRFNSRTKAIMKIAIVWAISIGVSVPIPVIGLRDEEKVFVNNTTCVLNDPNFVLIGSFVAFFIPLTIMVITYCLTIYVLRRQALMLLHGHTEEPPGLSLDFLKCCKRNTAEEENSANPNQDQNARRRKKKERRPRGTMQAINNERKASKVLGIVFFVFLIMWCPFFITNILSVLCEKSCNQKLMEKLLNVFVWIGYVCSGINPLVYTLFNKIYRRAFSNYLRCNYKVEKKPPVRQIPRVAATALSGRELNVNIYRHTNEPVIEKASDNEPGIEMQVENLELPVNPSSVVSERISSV

[4] = DRUGMATRIX: Purinergic P2X radioligand binding (ligand: [3H] alpha, beta-Methylene-ATP); format: cell membranes, Oryctolagus cuniculus, New Zealand albino, Urinary bladder, Membrane; settings: Not Active = under 50% inhibition at 10 µM
[5] = molecular target: Beta-3 adrenergic receptor (Homo sapiens, UniProt P13945); test: DRUGMATRIX: Adrenergic beta3 radioligand binding (ligand: [125I] Cyanopindolol); format: cell membranes, HEK293, Membrane; settings: Not Active = under 50% inhibition at 10 µM
Beta-3 adrenergic receptor, sequence (P13945 whole entry): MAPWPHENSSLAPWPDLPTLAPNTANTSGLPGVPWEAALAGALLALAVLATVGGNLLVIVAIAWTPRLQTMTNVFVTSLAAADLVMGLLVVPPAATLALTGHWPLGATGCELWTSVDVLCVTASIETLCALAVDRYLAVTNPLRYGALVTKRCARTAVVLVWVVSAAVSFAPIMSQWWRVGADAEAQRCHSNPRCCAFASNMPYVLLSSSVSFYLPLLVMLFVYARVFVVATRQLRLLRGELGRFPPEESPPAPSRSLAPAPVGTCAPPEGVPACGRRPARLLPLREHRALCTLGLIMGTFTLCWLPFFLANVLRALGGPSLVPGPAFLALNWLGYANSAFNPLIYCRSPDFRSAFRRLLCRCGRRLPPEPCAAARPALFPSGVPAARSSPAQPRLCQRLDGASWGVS

[6] = molecular target: T3, Amine oxidase [flavin-containing] A (Homo sapiens, UniProt P21397); test: DRUGMATRIX: Monoamine Oxidase MAO-A enzyme inhibition (substrate: Kynuramine); parameters: species or system BTI-TN-5B1-4; settings: bti-tn-5b1-4; Not Active = under 50% inhibition at 10 µM
T3 sequence (P21397 whole entry): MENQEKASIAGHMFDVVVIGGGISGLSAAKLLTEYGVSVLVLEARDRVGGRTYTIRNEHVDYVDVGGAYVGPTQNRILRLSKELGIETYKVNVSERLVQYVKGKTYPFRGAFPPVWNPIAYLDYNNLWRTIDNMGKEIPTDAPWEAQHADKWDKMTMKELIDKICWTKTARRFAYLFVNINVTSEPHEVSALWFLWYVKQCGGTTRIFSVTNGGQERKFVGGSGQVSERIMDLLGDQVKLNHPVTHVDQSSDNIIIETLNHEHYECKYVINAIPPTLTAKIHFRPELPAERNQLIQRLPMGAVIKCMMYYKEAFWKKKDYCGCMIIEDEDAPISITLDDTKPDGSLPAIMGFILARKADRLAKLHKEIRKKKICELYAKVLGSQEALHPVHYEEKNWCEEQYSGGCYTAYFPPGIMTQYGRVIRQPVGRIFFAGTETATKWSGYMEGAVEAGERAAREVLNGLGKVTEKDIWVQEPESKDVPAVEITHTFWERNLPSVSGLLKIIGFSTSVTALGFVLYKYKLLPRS

C-C chemokine receptor type 5, sequence (P51681 whole entry): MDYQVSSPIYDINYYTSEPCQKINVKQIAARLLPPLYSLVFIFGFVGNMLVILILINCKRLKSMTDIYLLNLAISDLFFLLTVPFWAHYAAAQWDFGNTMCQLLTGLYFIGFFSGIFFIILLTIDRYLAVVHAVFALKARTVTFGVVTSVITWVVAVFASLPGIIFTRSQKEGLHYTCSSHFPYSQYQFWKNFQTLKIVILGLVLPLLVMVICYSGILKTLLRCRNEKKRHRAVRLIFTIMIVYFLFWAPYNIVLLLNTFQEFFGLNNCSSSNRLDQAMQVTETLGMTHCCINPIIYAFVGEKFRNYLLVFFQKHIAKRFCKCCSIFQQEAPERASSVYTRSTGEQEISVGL

SMILES	IC50 [1]	IC50 [2]	IC50 (Cytochrome P450 2C9)	Ki (Cytochrome P450 2C9)	IC50 [3]	IC50 [4]	Ki [4]	IC50 ([5]; hek293)	IC50 [6]	IC50 ([5]; read-out: IC50) [µM]	Ki ([5]; read-out: Ki) [µM]
CCCC1O[C@@H]2C[C@H]3[C@@H]4CCC5=CC(=O)C=C[C@]5(C)[C@H]4[C@@H](O)C[C@]3(C)[C@]2(C(=O)CO)O1 (some centres undefined) [BUDESONIDE]	Not Active	Not Active	Not Active	Not Active	Not Active	Not Active	Not Active	Not Active	Not Active		
CC(NC(C)(C)C)C(=O)c1cccc(Cl)c1 (centres undefined) [BUPROPION]	Not Active	Not Active	Not Active	Not Active	Not Active	Not Active	Not Active	Not Active	Not Active		
CN(Cc1ccc(C(C)(C)C)cc1)Cc1cccc2ccccc12 [BUTENAFINE]	Not Active	Not Active	Not Active	Not Active	Not Active	Not Active	Not Active	Not Active	Not Active		
C[C@H](CS)C(=O)N1CCC[C@H]1C(=O)O [CAPTOPRIL]	Not Active	Not Active	Not Active	Not Active	Not Active	Not Active	Not Active	Not Active	Not Active		
Cc1ccc(-c2cc(C(F)(F)F)nn2-c2ccc(S(N)(=O)=O)cc2)cc1 [CELECOXIB]	Not Active	Not Active	Not Active	Not Active	Not Active	Not Active	Not Active		Not Active	16.1	12.1
O=C(O)CCCc1ccc(N(CCCl)CCCl)cc1 [CHLORAMBUCIL]	Not Active	Not Active	Not Active	Not Active	Not Active	Not Active	Not Active	Not Active	Not Active		
C[C@H](CCC(=O)O)[C@H]1CC[C@H]2[C@@H]3[C@H](O)C[C@@H]4C[C@H](O)CC[C@]4(C)[C@H]3C[C@H](O)[C@]12C [CHOLIC ACID]	Not Active	Not Active	Not Active	Not Active	Not Active	Not Active	Not Active	Not Active	Not Active		
Cc1cc(C2CCCCC2)n(O)c(=O)c1 [CICLOPIROX]	Not Active	Not Active	Not Active	Not Active	Not Active	Not Active	Not Active	Not Active	Not Active		
CC1=C2C(=CO[C@H](C)[C@H]2C)C(O)=C(C(=O)O)C1=O [CITRININ]	Not Active	Not Active	Not Active	Not Active	Not Active	Not Active	Not Active	Not Active	Not Active		
CC(C)(C)NCC(O)c1cc(Cl)c(N)c(Cl)c1 (centres undefined) [CLENBUTEROL]	Not Active	Not Active	Not Active	Not Active	Not Active	Not Active	Not Active	Not Active	Not Active		
Clc1cccc(Cl)c1NC1=NCCN1 [CLONIDINE]	Not Active	Not Active	Not Active	Not Active	Not Active	Not Active	Not Active	Not Active	Not Active		
CC1CC(OC(=O)C(O)c2ccccc2)CC(C)(C)C1 (centres undefined) [CYCLANDELATE]	Not Active	Not Active	Not Active	Not Active	Not Active	Not Active	Not Active	Not Active	Not Active		
